# Measurements as given in patent US20240197726A1, “NOVEL TETRAHYDROISOQUINOLINE ALKALOID COMPOUND CONTAINING MACROCYCLE” (THE UNIVERSITY OF TOKYO, priority 2021, published 2024).
# Read-outs that look alike come from different tables or passages of the source.
# Tests used:
# Format in all cases: cell-based
# OVCAR-4 cancer cells = assay: antitumor activity, sulforhodamine B cell growth assay, OVCAR-4
# Protocol: (§1) The THIQ compound containing a macrocyclic structure of the present invention was administered to various cancer cell lines, and the antitumor activity (Go value) was observed. Specifically, verification was performed according to the literature (Yamori, T.; Matsunaga, A.; Sato, S.; Yamazaki, K.; Komi, A.; Ishizu, K. et al. Cancer Res. 1999, 59, 4042) by the following procedure.
# (§2) Cells were plated at an appropriate density in a 96-well plate in RPMI 1640 together with 5% fetal bovine serum, and adhered overnight. The cells were exposed to a drug for 48 hours. Then, according to the sulforhodamine B assay described by Skehan et al (Skehan P., Storeng R., Scudiero D., Monks A., McMahon J., Vistica D., Warren J. T., Bokesch H., Kenney S., Boyd M. R. J Natl. Cancer Inst, 1990, 82, 1107-1112), the cell growth rate was measured. The absorbance of the control well (C) and the test well (T) was measured at 525 nm. In addition, the time at which the drug was added was set as time 0, and the absorbance for the test well (T0) was measured. Using these measured values, the cell growth inhibitory effect (% growth=PG) was calculated by the following formula at each concentration of the drug.
# (§3) (T<T0): PG=100×[(T−T0)/T]
# (§4) The PG values determined above for each cell line were plotted against the concentration (logarithm) on a semi-logarithmic graph, and summarized for each visceral cancer. Concentrations at which the dose-response curve of each cell line crossed the horizontal line of PG=50%, 0%, or −50% were calculated. These concentrations were defined as Log GI50, Log TGI, and Log LC50. Actually, using two data points of the drug concentration before and after crossing each horizontal line, the drug concentration (logarithmic value) at the intersection of the straight line connecting the two points and the horizontal line for each PG was calculated.
# [1] = system: KM-12 colorectal cancer cells; assay: antitumor activity, sulforhodamine B cell growth assay, KM-12
# Protocol: as §1, §2, §3, §4
# OVCAR-3 cancer cells = assay: antitumor activity, sulforhodamine B cell growth assay, OVCAR-3
# Protocol: as §1, §2, §3, §4
# [2] = system: MKN-A gastric cancer cells; assay: antitumor activity, sulforhodamine B cell growth assay, MKN-A
# Protocol: as §1, §2, §3, §4
# [3] = system: MKN-B gastric cancer cells; assay: antitumor activity, sulforhodamine B cell growth assay, MKN-B
# Protocol: as §1, §2, §3, §4
# [4] = system: NCI-H226 lung cancer cells; assay: antitumor activity, sulforhodamine B cell growth assay, NCI-H226
# Protocol: as §1, §2, §3, §4
# DMS273 lung cancer cells = assay: antitumor activity, sulforhodamine B cell growth assay, DMS273
# Protocol: as §1, §2, §3, §4
# [5] = system: RXF-631L kidney cancer cells; assay: antitumor activity, sulforhodamine B cell growth assay, RXF-631L
# Protocol: as §1, §2, §3, §4
# [6] = system: HCT-15 colorectal cancer cells; assay: antitumor activity, sulforhodamine B cell growth assay, HCT-15
# Protocol: as §1, §2, §3, §4
# [7] = system: HBC-5 breast cancer cells; assay: antitumor activity, sulforhodamine B cell growth assay, HBC-5
# Protocol: as §1, §2, §3, §4
# [8] = system: MKN1 gastric cancer cells; assay: antitumor activity, sulforhodamine B cell growth assay, MKN1
# Protocol: as §1, §2, §3, §4
# OVCAR-8 cancer cells = assay: antitumor activity, sulforhodamine B cell growth assay, OVCAR-8
# Protocol: as §1, §2, §3, §4
# LOX-IMVI melanoma cells = assay: antitumor activity, sulforhodamine B cell growth assay, LOX-IMVI
# Protocol: as §1, §2, §3, §4
# [9] = system: MCF-7 breast cancer cells; assay: antitumor activity, sulforhodamine B cell growth assay, MCF-7
# Protocol: as §1, §2, §3, §4
# SK-OV-3 cancer cells = assay: antitumor activity, sulforhodamine B cell growth assay, SK-OV-3
# Protocol: as §1, §2, §3, §4
# [10] = system: MKN45 gastric cancer cells; assay: antitumor activity, sulforhodamine B cell growth assay, MKN45
# Protocol: as §1, §2, §3, §4
# [11] = system: SNB-75 central nervous system cancer cells; assay: antitumor activity, sulforhodamine B cell growth assay, SNB-75
# Protocol: as §1, §2, §3, §4
# [12] = system: U251 central nervous system cancer cells; assay: antitumor activity, sulforhodamine B cell growth assay, U251
# Protocol: as §1, §2, §3, §4
# [13] = system: SNB-78 central nervous system cancer cells; assay: antitumor activity, sulforhodamine B cell growth assay, SNB-78
# Protocol: as §1, §2, §3, §4
# [14] = system: St-4 gastric cancer cells; assay: antitumor activity, sulforhodamine B cell growth assay, St-4
# Protocol: as §1, §2, §3, §4
# [15] = system: HT-29 colorectal cancer cells; assay: antitumor activity, sulforhodamine B cell growth assay, HT-29
# Protocol: as §1, §2, §3, §4
structure (smiles),measurement,setting,value
"COC1=C(C)C(=O)C2=C(C1=O)[C@H](CNC(=O)[C@H](C)N)N1C(C2)[C@H]2c3c(cc(C)c(OC)c3O)C[C@@H]([C@@H]1C#N)N2C (some centres unmarked) [Cyanosafracin B, reference compound]",GI50,"OVCAR-4 cancer cells; OVCAR-4, drug exposure 48 hours, read-out: GI50 value: 50% growth inhibitory concentration",290 nM
same,GI50,"[1]; KM-12, drug exposure 48 hours, read-out: GI50 value: 50% growth inhibitory concentration",530 nM
same,GI50,"OVCAR-3 cancer cells; OVCAR-3, drug exposure 48 hours, read-out: GI50 value: 50% growth inhibitory concentration",130 nM
same,GI50,"[2]; MKN-A, drug exposure 48 hours, read-out: GI50 value: 50% growth inhibitory concentration",250 nM
same,GI50,"[3]; MKN-B, drug exposure 48 hours, read-out: GI50 value: 50% growth inhibitory concentration",170 nM
same,GI50,"[4]; NCI-H226, drug exposure 48 hours, read-out: GI50 value: 50% growth inhibitory concentration",310 nM
same,GI50,"DMS273 lung cancer cells; DMS273, drug exposure 48 hours, read-out: GI50 value: 50% growth inhibitory concentration",270 nM
same,GI50,"[5]; RXF-631L, drug exposure 48 hours, read-out: GI50 value: 50% growth inhibitory concentration",400 nM
same,GI50,"[6]; HCT-15, drug exposure 48 hours, read-out: GI50 value: 50% growth inhibitory concentration",390 nM
same,GI50,"[7]; HBC-5, drug exposure 48 hours, listed as drawing 116, read-out: GI50 value: 50% growth inhibitory concentration",82 nM
same,GI50,"[7]; HBC-5, drug exposure 48 hours, listed as drawing 120, read-out: GI50 value: 50% growth inhibitory concentration",62 nM
same,GI50,"[8]; MKN1, drug exposure 48 hours, read-out: GI50 value: 50% growth inhibitory concentration",52 nM
same,GI50,"OVCAR-8 cancer cells; OVCAR-8, drug exposure 48 hours, read-out: GI50 value: 50% growth inhibitory concentration",290 nM
same,GI50,"LOX-IMVI melanoma cells; LOX-IMVI, drug exposure 48 hours, listed as drawing 116, read-out: GI50 value: 50% growth inhibitory concentration",81 nM
same,GI50,"LOX-IMVI melanoma cells; LOX-IMVI, drug exposure 48 hours, listed as drawing 120, read-out: GI50 value: 50% growth inhibitory concentration",61 nM
same,GI50,"[9]; MCF-7, drug exposure 48 hours, read-out: GI50 value: 50% growth inhibitory concentration",52 nM
same,GI50,"SK-OV-3 cancer cells; SK-OV-3, drug exposure 48 hours, read-out: GI50 value: 50% growth inhibitory concentration",540 nM
same,GI50,"[10]; MKN45, drug exposure 48 hours, read-out: GI50 value: 50% growth inhibitory concentration",300 nM
same,GI50,"[11]; SNB-75, drug exposure 48 hours, read-out: GI50 value: 50% growth inhibitory concentration",150 nM
same,GI50,"[12]; U251, drug exposure 48 hours, read-out: GI50 value: 50% growth inhibitory concentration",370 nM
same,GI50,"[13]; SNB-78, drug exposure 48 hours, read-out: GI50 value: 50% growth inhibitory concentration",63 nM
same,GI50,"[14]; St-4 (SI-4 in Tables 2-11), drug exposure 48 hours, read-out: GI50 value: 50% growth inhibitory concentration",430 nM
same,GI50,"[15]; HT-29, drug exposure 48 hours, read-out: GI50 value: 50% growth inhibitory concentration",190 nM
CC1=C(C)C(=O)C2=C(CC3(C)[C@H]4c5c(cc(C)c(C)c5C)C[C@@](C)(C(C)N3[C@H]2CNC(=O)C(C)C)N4C)C1=O (some centres unmarked) [drawing 160],GI50,"OVCAR-4 cancer cells; Homo sapiens, OVCAR-4 cervical cancer cells, read-out: antitumor activity GI50 value: 50% growth inhibitory concentration",290 nM
same,GI50,"[1]; Homo sapiens, KM12, KM-12 colorectal cancer cells, read-out: antitumor activity GI50 value: 50% growth inhibitory concentration",530 nM
same,GI50,"OVCAR-3 cancer cells; Homo sapiens, OVCAR-3 cervical cancer cells, read-out: antitumor activity GI50 value: 50% growth inhibitory concentration",130 nM
same,GI50,"[2]; MKN-A gastric cancer cells, read-out: antitumor activity GI50 value: 50% growth inhibitory concentration",250 nM
same,GI50,"[3]; MKN-B gastric cancer cells, read-out: antitumor activity GI50 value: 50% growth inhibitory concentration",170 nM
same,GI50,"[4]; Homo sapiens, NCI-H226, NCl-H226 lung cancer cells, read-out: antitumor activity GI50 value: 50% growth inhibitory concentration",310 nM
same,GI50,"DMS273 lung cancer cells; Homo sapiens, DMS-273, DMS273 lung cancer cells, read-out: antitumor activity GI50 value: 50% growth inhibitory concentration",270 nM
same,GI50,"[5]; RXF-631L kidney cancer cells, read-out: antitumor activity GI50 value: 50% growth inhibitory concentration",400 nM
same,GI50,"[6]; Homo sapiens, HCT-15 colorectal cancer cells, read-out: antitumor activity GI50 value: 50% growth inhibitory concentration",390 nM
same,GI50,"[7]; HBC5, HBC-5 breast cancer cells, read-out: antitumor activity GI50 value: 50% growth inhibitory concentration",62 nM
same,GI50,"[8]; Homo sapiens, MKN-1, MKN1 gastric cancer cells, read-out: antitumor activity GI50 value: 50% growth inhibitory concentration",52 nM
same,GI50,"OVCAR-8 cancer cells; Homo sapiens, OVCAR-8 cervical cancer cells, read-out: antitumor activity GI50 value: 50% growth inhibitory concentration",290 nM
same,GI50,"LOX-IMVI melanoma cells; Homo sapiens, LOX-IMVI melanoma cells, read-out: antitumor activity GI50 value: 50% growth inhibitory concentration",61 nM
same,GI50,"[9]; Homo sapiens, MCF7, MCF-7 breast cancer cells, read-out: antitumor activity GI50 value: 50% growth inhibitory concentration",52 nM
same,GI50,"SK-OV-3 cancer cells; Homo sapiens, SK-OV-3 cervical cancer cells, read-out: antitumor activity GI50 value: 50% growth inhibitory concentration",540 nM
same,GI50,"[10]; Homo sapiens, MKN-45, MKN45 gastric cancer cells, read-out: antitumor activity GI50 value: 50% growth inhibitory concentration",300 nM
same,GI50,"[11]; Homo sapiens, SNB-75 central nervous system cancer cells, read-out: antitumor activity GI50 value: 50% growth inhibitory concentration",150 nM
same,GI50,"[12]; Homo sapiens, U-251, U251 central nervous system cancer cells, read-out: antitumor activity GI50 value: 50% growth inhibitory concentration",370 nM
same,GI50,"[13]; Homo sapiens, SNB-78 central nervous system cancer cells, read-out: antitumor activity GI50 value: 50% growth inhibitory concentration",63 nM
same,GI50,"[14]; SI-4 gastric cancer cells, read-out: antitumor activity GI50 value: 50% growth inhibitory concentration",430 nM
same,GI50,"[15]; Homo sapiens, HT-29 colorectal cancer cells, read-out: antitumor activity GI50 value: 50% growth inhibitory concentration",190 nM
